Measurements published in paper PMC5543150, “Antimalarial troponoids, puberulic acid and viticolins; divergent synthesis and structure-activity relationship studies” (Scientific Reports, 2017).
In brackets after ≈: the same amount, converted by molar mass. Read-outs that look alike come from different tables or passages of the source.

Legend:
[1] = test system: Plasmodium falciparum K1 (chloroquine-resistant) parasite strain; assay: In vitro antimalarial assay (p-LDH, 72 h) against Plasmodium falciparum K1 strain; assay type: cell-based; details: for IC50: Plasmodium falciparum; for fold better IC50 than those of 7 and 37: relative to 7 and 37
Method: Briefly, the P. falciparum K1 strain was cultured in human erythrocytes in RPMI medium supplemented with 10% human plasma at 37 °C, under 93% N2, 4% CO2, and 3% O2. Asynchronous parasites (2% hematocrit and 0.5 or 1% parasitaemia) were seeded in a 96-well microtiter plate and serially diluted test compounds were added. […] After 72-hours incubation, parasite lactate dehydrogenase (p-LDH) was assayed using a slight modification of the procedure reported by Makler et al.[31] and Vivas et al.[32]. The 50% inhibitory concentration (IC50) value was calculated from a dose response curve. This study was approved by “Kitasato Institute Hospital Research Ethics Committee (No12102)” using human erythrocytes donated by volunteers.
3. Biological evaluation of synthesized derivatives
3-1. In vitro cultivation of Plasmodium falciparum and the antimalarial assay In vitro cultivation and antimalarial activity against the Plasmodium falciparum […]
previously1). Briefly, the P. falciparum K1 strain was cultured in human erythrocytes in RPMI medium supplemented with 10% human plasma at 37 °C, under 93% N2, 4% CO2, and 3% O2. Asynchronous parasites (2% hematocrit and 0.5 or 1% parasitaemia) were seeded in a 96-well microtiter plate and serially diluted test compounds were added.
After 72-hours incubation, parasite lactate dehydrogenase (p-LDH) was assayed using a slight modification of the procedure reported by Makler et al2) and Vivas et al3). The 50% inhibitory concentration (IC50) value was calculated from a dose response curve.
This study was approved by “Kitasato Institute Hospital Research Ethics Committee (No12102)” using human erythrocytes donated by volunteers.
(§1) 3-2. Cytotoxic assay against MRC-5 cells
Measurement of cytotoxicity against human fetal lung fibroblast MRC-5 cells was carried out as described previously4).
1) K. Otoguro, A. Kohana, C. Manabe, A. Ishiyama, H. Ui, K. Shiomi, H. Yamada, S. […]
2) M. T. Makler, J. M. Ries, J. A. Williams, J. E. Bancroft, R. C. Piper, B. L. Gibbins, […]
D. J. Hinrichs, Am. J. Med. Hyg. 1993, 48, 739-741.
3) L. Vivas, A. Easton, H. Kendrick, A. Cameron, J.-L. Lavandera, D. Barros, F. G. de las Heras, R. L. Brady, S. L. Croft, Exper. Parasitol. 2005, 111, 105-114.
4) K. Otoguro, H. Ui, A. Ishiyama, N. Arai, M. Kobayashi, Y. Takahashi, R. Masuma, K. Shiomi, H. Yamada, S. Ōmura, J. Antibiot. 2003, 56, 322-324.

[2] = Cytotoxic assay against MRC-5 cells; details: human
Method: Measurement of cytotoxicity against human fetal lung fibroblast MRC-5 cells was carried out as described previously.
3. […]
as §1
Measurement of cytotoxicity against human fetal lung fibroblast MRC-5 cells
was carried out as described previously4). […]
4) K. Otoguro, H. Ui, A. Ishiyama, N. Arai, M. Kobayashi, Y. Takahashi, R. Masuma,
K. Shiomi, H. Yamada, S. Ōmura, J. Antibiot.

[3] = test system: Plasmodium falciparum K1 (chloroquine-resistant) parasite strain; details: natural products and simple troponoids, previously reported, cited from earlier work; for IC50 Antimalarial activity (K1 strain) / Selectivity index MRC-5/K1: Table S1; for IC50: read-out: IC50, antimalarial activity against Plasmodium falciparum K1 strain
[4] = test system: human fetal lung fibroblast MRC-5 cells; set-up: method as in earlier work; details: Table S1; natural products and simple troponoids, previously reported; cited from earlier work
P. berghei = test system: P. berghei; set-up: method as in PMID 21063422, PMID 24713875; details: 2 mg/kg × 4, subcutaneous (s.c.), 4-day suppressive test; cited from earlier work
[5] = set-up: method as in PMID 21063422, PMID 24713875; details: s.c. dose of 5 mg/kg × 2 (day 0 and 1), by day 3; cited from earlier work
[6] = K1, Table S1, synthesized compounds and positive controls, read-out: IC50 Antimalarial activity (K1 strain)
[7] = K1, synthesized derivatives, in vitro, read-out: IC50 Antimalarial activity (K1 strain)
[8] = Table S1, synthesized compounds and positive controls
[9] = MRC-5 cells (fetal lung fibroblasts), IC50 Cytotoxicity (MRC-5), Table S1, synthesized compounds and positive controls
[10] = MRC-5 cells (fetal lung fibroblasts), IC50 Cytotoxicity (MRC-5), synthesized derivatives
[11] = MRC-5 cells (fetal lung fibroblasts), IC50 cytotoxicity (MRC-5)

SMILES	IC50 [1, 6] [µg/mL]	IC50 [1, 7] [nM]	Selectivity index MRC-5/K1 [1, 8]	IC50 [2, 9] [µg/mL]	IC50 [2, 10] [nM]	IC50 Antimalarial activity (K1 strain) [3] [µg/mL]	IC50 [3] [nM]	also measured
O=C(O)c1cc(O)c(O)c(=O)c(O)c1 [Compound 1, puberulic acid]	0.0087	44 ± 2.9	480.46	4.18	289000	0.01 (≈ 0.0505 µM)	50	Selectivity index MRC-5/K1 [3]: 5720; IC50 Cytotoxicity (MRC-5) [4]: 57.20 µg/mL (≈ 289 µM); in vivo efficacy, inhibition (P. berghei): 69%; toxicity in vivo, mice dying [5]: four out of five
O=C(O)c1cc(O)cc(=O)c(O)c1 [Compound 2, stipitatic acid]	–	–	–	–	–	7.07 (≈ 38.8 µM)	–	Selectivity index MRC-5/K1 [3]: > 14; IC50 Cytotoxicity (MRC-5) [4]: > 100 µg/mL
COc1c(O)cc(C(=O)O)cc(O)c1=O [Compound 3, viticolin A]	–	–	–	–	–	9.92 (≈ 46.8 µM)	46800	melting point: 227 °C; Selectivity index MRC-5/K1 [3]: > 10; IC50 Cytotoxicity (MRC-5) [4]: > 100 µg/mL
COc1cc(C(=O)O)cc(O)c(OC)c1=O [Compound 4, viticolin B]	–	–	–	–	–	0.84 (≈ 3.71 µM)	3710	Selectivity index MRC-5/K1 [3]: 8.08; IC50 Cytotoxicity (MRC-5) [4]: 6.79 µg/mL (≈ 30 µM)
O=c1cccccc1 [Compound 5, tropone, reference compound]	–	–	–	–	–	> 12.50	> 118000	–
O=c1cccccc1O [Compound 6, tropolone, reference compound]	–	–	–	–	–	2.74 (≈ 22.4 µM)	22400	–
O=c1c(O)ccccc1O [Compound 7, 7-hydroxytropolone, reference compound]	–	–	–	–	–	0.89 (≈ 6.44 µM)	6440	fold stronger IC50 value than that of 5 ([1]; K1 strain, relative to tropone (5)): > 18 fold; Selectivity index MRC-5/K1 [3]: 0.27; IC50 Cytotoxicity (MRC-5) [4]: 0.24 µg/mL (≈ 1.74 µM)
CC(C)c1cccc(=O)c(O)c1 [Compound 8, hinokitiol, reference compound]	–	–	–	–	–	4.92 (≈ 30 µM)	30000	Selectivity index MRC-5/K1 [3]: 1.20; IC50 Cytotoxicity (MRC-5) [4]: 5.80 µg/mL (≈ 35.3 µM)
CC1(C)Oc2cc(C=O)cc(O)c(=O)c2O1 [Compound 23]	> 12.5	> 56000	–	–	–	–	–	–
CC1(C)Oc2cc(C(=O)O)cc(O)c(=O)c2O1 [Compound 24]	> 12.5	> 50000	–	–	–	–	–	–
COC(=O)c1cc2c(c(OC)c(=O)c1)OC(C)(C)O2 [Compound 25]	> 12.5	> 47000	–	–	–	–	–	–
CCN(CC)CCCC(C)Nc1ccnc2cc(Cl)ccc12 (centres unmarked) [chloroquine, reference compound]	–	–	–	–	–	–	–	IC50 ([1]; K1, read-out: IC50 Antimalarial activity (K1 strain)): 0.18 µg/mL; IC50 [2]: 18.6 µg/mL

Further lines, with some results ahead:

IC50 [1, 6] [µg/mL]	IC50 [1, 7] [nM]	SMILES	Selectivity index MRC-5/K1 [1, 8]	IC50 [2, 9] [µg/mL]	IC50 [2, 10] [nM]	IC50 Antimalarial activity (K1 strain) [3] [µg/mL]	IC50 [3] [nM]	also measured
> 12.5	> 47000	COC(=O)c1cc2c(c(=O)c(OC)c1)OC(C)(C)O2 [Compound 26]	–	–	–	–	–	–
> 12.5	> 50000	COc1c2c(cc(C(=O)O)cc1=O)OC(C)(C)O2 [Compound 27]	–	–	–	–	–	–
> 12.5	> 50000	COc1cc(C(=O)O)cc2c(c1=O)OC(C)(C)O2 [Compound 28]	–	–	–	–	–	–
0.073	340 ± 22	COc1cc(C(=O)O)cc(O)c(=O)c1O [Compound 29, Iso-viticolin A]	162.33	11.8	55800	–	–	fold stronger activity than viticolin A (3) ([1]; K1 strain, relative to viticolin A (3)): approximately 100 fold
0.728	4330 ± 30	O=c1c(O)ccc(CO)cc1O [Compound 37, 4-Hydroxymethyl-7-hydroxytropolone]	0.0008	0.00057	3.4	–	–	IC50 [2, 11]: 3.39 nM; melting point: 144 °C (dec.)
0.38	2090 ± 27	COCc1ccc(O)c(=O)c(O)c1 [Compound 38, 4-Methoxymethyl-7-hydroxytropolone]	0.0006	0.00024	1.3	–	–	fold better IC50 than those of 7 and 37 ([1]; K1 strain): approximately 2 fold; IC50 [2, 11]: 1.32 nM
0.387	2120 ± 110	O=C(O)c1ccc(O)c(=O)c(O)c1 [Compound 40, Iso-stipitatic acid]	47.82	18.6	102000	–	–	fold better IC50 than those of 7 and 37 ([1]; K1 strain): approximately 2 fold
0.038	210 ± 3.3	O=c1c(O)cc(CO)cc(O)c1O [Compound 42, 4-Hydroxymethyl-6,7-dihydroxytropolone]	0.115	0.00435	24	–	–	melting point: 162 °C
0.044	220 ± 1.6	COCc1cc(O)c(O)c(=O)c(O)c1 [Compound 43, 4-Methoxymethyl-6,7-dihydroxytropolone]	0.041	0.00181	91	–	–	melting point: 120 °C
0.096	460 ± 53	[N-]=[N+]=NCc1cc(O)c(O)c(=O)c(O)c1 [Compound 44, 4-Azidomethyl-6,7-dihydroxytropolone]	–	0.00073	3.5	–	–	–
0.0057	–	C[C@@H]1CC[C@H]2[C@@H](C)C(=O)O[C@@H]3O[C@@]4(C)CC[C@@H]1[C@]32OO4 [artemisinin, reference compound]	7.925	–	–	–	–	IC50 ([2]; IC50 Cytotoxicity (MRC-5)): 45.2 µg/mL
